Laboratory results from US20120004281A1, “RNA Interference Mediated Inhibition of the Nerve Growth Factor Beta Chain (NGFB) Gene Expression Using Short Interfering Nucleic Acid (siNA)” (Merck Sharp & Dohme Corp, priority 2009, published 2012).
[invAb] = inverted abasic unit; m = 2'-O-methyl; r = 2'-OH (RNA); f = 2'-fluoro

Key:
NGFβ mRNA = NGFβ mRNA knock-down in Calu-1 cells (RNAiMax transfection, Taqman RT-PCR); type: cell-based, human; conditions: for Primary Screen % KD (10 nM) / IC50 / Maximum % KD in DRC: human CaLu-1 cells; for Primary Screen % KD (10 nM): mean ± S.D. of four experiments; for IC50 / Maximum % KD in DRC: dose response 0.083fM to 30 nM, mean ± S.D.; for % KD in CaLu-1 Cells: human Calu-1 cells, 10 nM siNA, 24 hrs post-transfection, relative to non-targeting control, normalized to GAPDH
Experimental: Calu-1 (human; ATCC cat# HTB-54): Cells were cultured at 37° C. in the presence of 5% CO2 and grown in McCoy's 5a medium supplemented with fetal bovine serum at a final concentration of 10% and 100 μg/mL of streptomycin and 100 U/mL penicillin.
All transfections were performed using RNAiMax (Invitrogen Cat# 13778-150) as per the manufacturer's instructions.
Cells were plated in all wells of a tissue-culture treated, 96-well plate at a final count of 5,000 cells/well in […], of appropriate culture media. Cells were cultured for 24 hours after plating at 37° C. in the presence of 5% CO2.
After 24 hours, complexes containing siNA and RNAiMax were created as follows: A solution of RNAiMax diluted 33-fold in OPTI-MEM was prepared. In parallel, solutions of the siNAs for testing were prepared to a final concentration of 120 nM in OPTI-MEM. After incubation of RNAiMax/OPTI-MEM solution at room temperature for 5 min, an equal volume of the siRNA solution and the RNAiMax solution were added together for each of the siNAs.
This solution was incubated at room temperature for 20 minutes. After incubation, 20 uL of the solution was added to each of the relevant wells.
The final concentration of siNA in each well was 10 nM and the final volume of RNAiMax in each well was 0.3u1.
The time of incubation with the RNAiMax-siNA complexes was 24 hours, unless otherwise indicated. There was no change in media between the transfection and harvesting of the cells unless otherwise indicated.
Dose response curves were carried out in a similar fashion in 96-well plates, while maintaining a constant amount of RNAiMax in each transfection.
RNA was extracted from a 96-well plate using the TaqMan® Gene Expression Cells-to-CT™ Kit (Cat# 4399002) with a modified protocol. Briefly, a 60 uL (1 plate) or 110 uL (2 plates) of the Lysis Solution with DNase I was dispensed into each well of the Lysis Buffer Plate (twin.tec full skirt plate). The lysis buffer and stop plates were stored at 4° C. until the cells were washed.
The plate was spun at 1100 rpm for 5 minutes. The culture medium was aspirated and discarded from the wells of the culture plate. The lysis was performed automatically using a BioMek FX instrument and method. After the Biomek method was completed, the lysis plate was incubated for 2 min. at room temperature. The lysis plate can be stored for 2 hours at 4° C., or at −20° C. or −80° C. for two months.
Each well of the reverse transcription plate required 10 uL of 2× reverse transcriptase Buffer, luL of 20× reverse transcription enzyme and 2 uL of nuclease-free water. The reverse transcription master mix was prepared by mixing 2× reverse transcription buffer, 20× reverse transcription enzyme mix, and nuclease-free water. 13 uL of the reverse transcription master mix was dispensed into each well of the reverse transcription plate (semi-skirted). A separate reverse transcription plate was prepared for each cell plate. The plate was loaded onto a Biomek NX or Biomek FX Dual-96 and the Biomek method was run. The program is programmed to automatically added 7 uL of lysate from the cell lysis procedure described above into each well of the reverse transcription plate. The plate is sealed and spun on a centrifuge (1000 rpm for 30 seconds) to settle the contents to the bottom of the reverse transcription plate. The plate is placed in a thermocycler at 37° C. for 60 min, 95° C. for 5 min, and 4° C. until the plate is removed from the thermocycler. Upon removal, if not used immediately, the plate was frozen at −20° C.
A series of probes and primers were used to detect the various mRNA transcripts of the genes of NGFβ, BDNF and GAPDH in human cell lines. All the Taqman probes and primers for the experiments here-in described were supplied as pre-validated sets by Applied Biosystems, Inc. (see Table 3). The assays were performed on an ABI 7900 instrument, according to the manufacturer's instructions. […]

NGFβ protein = assay: NGFβ ELISA (protein knock-down in Calu-1 cells); type: cell-based, human; conditions: for Max % Protein Reduction at 3 nM: 3 nM siNA, relative to negative universal control siNA (UC3); for IC50: 200 fM to 3 nM siNA, ELISA
Experimental: In a 96-well plate, 5,000 Calu-1cells/well were seeded in 100 uL of complete growth media and incubated overnight at 37° C. with 5% CO2. The cells were transfected with siNAs using RNAiMax (Invitrogen, Cat# 13778-150); final concentration of siNAs is 3e-09, le-09, 3e-10, le-10, 4e-11, le-11, 4e-12, le-12, 5e-13, and 2e-13 M. The amount of RNAiMax in each well is 0.3 uL. The siNAs were incubated for 24 hours. The medium was replaced with 100 uL of fresh complete growth medium. The cells were incubated for 48 hours. 80 uL of the medium from each well was collected into a separate 96-well plate. The samples were frozen immediately at −80° C. until ready the assay was ready to be performed.
ELISA was performed using NGF Emax® ImmunoAssay System (Promega, Cat # G7630) according to the manufaturer's instructions. The samples were diluted 1:2 with the blocking buffer provided in the kit. The samples absorbance was recorded at 450 nm on a SpectraMax plate reader (Molecular Devices) within 30 minutes of stopping the reaction.
Sigmaplot was used to determine IC50 values for each of the tested siRNAs using a sigmoidal dose response calculation. The maximum percentage of protein knock-down was determined by dividing the pg/mL at each treated siNA concentration by the pg/mL of the control treated cells at the same concentration of siNA. This number was then converted to a percentage to give the percent of protein remaining.
Various siNAs were also evaluated for their potential to knock-down NGFβ protein using an ELISA assay. Six siNAs were tested in an NGFβ ELISA assay across a range of concentrations of siNAs (200 fM to 3 nM) and the level of reduction of protein was determined relative to treatment of the cells with identical concentrations of the negative universal control siNA (UC3) (see Table 6).

NGF = target: T1, NGF (Homo sapiens, UniProt P01138); conditions: 440 patients, moderate-severe OA knee pain, 100 or 200 mcg/kg; 26% of patients given placebo; cited from earlier work
T1 construct: host or cells: patients (in vivo)
T1 sequence (P01138 122-241): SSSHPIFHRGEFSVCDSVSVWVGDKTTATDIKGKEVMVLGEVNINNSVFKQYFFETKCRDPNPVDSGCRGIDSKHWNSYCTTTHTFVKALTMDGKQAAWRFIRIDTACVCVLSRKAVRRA

Row | Substance | Primary Screen % KD (10 nM) (NGFβ mRNA) | IC50 (NGFβ mRNA) | Maximum % KD in DRC (NGFβ mRNA) | % KD in CaLu-1 Cells (NGFβ mRNA) | Max % Protein Reduction at 3 nM (NGFβ protein) | IC50 (NGFβ protein) | patients with 50% decline in pain (NGF)
1 | 25417-DC: siNA duplex, NGFβ target site 655; sense B GGuGAAcAuuAAcAAcAGu TTB (SEQ ID NO: 59), antisense ACUGuuGuuAAuGuucAccUU (SEQ ID NO: 60) (sense GGUGAACAUUAACAACAGUTT; antisense ACUGUUGUUAAUGUUCACCUU; sense: DNA at AGT, 2'-fluoro at CU, [invAb] at 5' end, 3' end, backbone not given here; antisense: sugars from the 5' end rrrmffmffmmfmfffmffmm, backbone not given here) | 71 ± 2% | 71 ± 46 pM | 61 ± 2% | 68% | 77% | 0.303 nM | –
2 | 25422-DC: siNA duplex, NGFβ target site 171; sense B uGuccAuGuuGuucuAcAc TTB (SEQ ID NO: 69), antisense GUGuAGAAcAAcAuGGAcAUU (SEQ ID NO: 70) (sense UGUCCAUGUUGUUCUACACTT; antisense GUGUAGAACAACAUGGACAUU; sense: DNA at AGT, 2'-fluoro at CU, [invAb] at 5' end, 3' end, backbone not given here; antisense: sugars from the 5' end rrrfmmmmfmmfmfmmmfmmm, backbone not given here) | 72 ± 11% | 60 ± 45 pM | 61 ± 9% | 72% | 77% | 0.395 nM | –
3 | 25425-DC: siNA duplex, NGFβ target site 181; sense B GuucuAcAcucuGAucAcA TTB (SEQ ID NO: 75), antisense UGUGAucAGAGuGuAGAAcUU (SEQ ID NO: 76) (sense GUUCUACACUCUGAUCACATT; antisense UGUGAUCAGAGUGUAGAACUU; sense: DNA at AGT, 2'-fluoro at CU, [invAb] at 5' end, 3' end, backbone not given here; antisense: sugars from the 5' end rrrmmffmmmmfmfmmmmfmm, backbone not given here) | 83 ± 6% | 20 ± 19 pM | 72 ± 1% | 80% | 87% | 0.074 nM | –
4 | 25424-DC: siNA duplex, NGFβ target site 176; sense B AuGuuGuucuAcAcucuGA TTB (SEQ ID NO: 73), antisense UCAGAGuGuAGAAcAAcAuUU (SEQ ID NO: 74) (sense AUGUUGUUCUACACUCUGATT; antisense UCAGAGUGUAGAACAACAUUU; sense: DNA at AGT, 2'-fluoro at CU, [invAb] at 5' end, 3' end, backbone not given here; antisense: sugars from the 5' end rrrmmmfmfmmmmfmmfmfmm, backbone not given here) | 82 ± 9% | 50 ± 55 pM | 72 ± 5% | 78% | 85% | 0.108 nM | –
5 | Tanezumab | – | – | – | – | – | – | approximately 75%
6 | 25413-DC: siNA duplex, NGFβ target site 153; sense B cuGAGGuGcAuAGcGuAAu TTB (SEQ ID NO: 51), antisense AUUAcGcuAuGcAccucAGUU (SEQ ID NO: 52) (sense CUGAGGUGCAUAGCGUAAUTT; antisense AUUACGCUAUGCACCUCAGUU; sense: DNA at AGT, 2'-fluoro at CU, [invAb] at 5' end, 3' end, backbone not given here; antisense: sugars from the 5' end rrrmfmffmfmfmffffmmmm, backbone not given here) | 76 ± 6% | 38 ± 35 pM | 69 ± 8% | 68% | 77% | 0.253 nM | –
7 | 25416-DC: siNA duplex, NGFβ target site 771; sense B GuAccAcGAcucAcAccuu TTB (SEQ ID NO: 57), antisense AAGGuGuGAGucGuGGuAcUU (SEQ ID NO: 58) (sense GUACCACGACUCACACCUUTT; antisense AAGGUGUGAGUCGUGGUACUU; sense: DNA at AGT, 2'-fluoro at CU, [invAb] at 5' end, 3' end, backbone not given here; antisense: sugars from the 5' end rrrmfmfmmmffmfmmfmfmm, backbone not given here) | 80 ± 3% | 35 ± 33 pM | 61 ± 7% | 69% | 89% | 0.096 nM | –
